Assay results: ChEMBL document CHEMBL4118131, “Synthesis of 1,2,4-triazole-linked urea/thiourea conjugates as cytotoxic and apoptosis inducing agents” (Bioorg Med Chem Lett, 2018)
The source made the active and inactive calls. The calls are words filed in the database; no cut-off is given here.

What was measured:
DU-145 = assay: Cytotoxicity in human DU145 cells assessed as reduction in cell viability incubated for 48 hrs by MTT assay; type: functional, cell-based; settings: DU-145, 48 h
MDA-MB-231 = assay: Cytotoxicity in human MDA-MB-231 cells assessed as reduction in cell viability incubated for 48 hrs by MTT assay; type: functional, cell-based; settings: MDA-MB-231, 48 h
A549 = assay: Cytotoxicity in human A549 cells assessed as reduction in cell viability incubated for 48 hrs by MTT assay; type: functional, cell-based; settings: A549, 48 h
B16-F10 = assay: Cytotoxicity in mouse B16/F10 cells assessed as reduction in cell viability incubated for 48 hrs by MTT assay; type: functional, cell-based; settings: B16-F10, 48 h
MCF7 [1] = assay: Cytotoxicity in human MCF7 cells assessed as reduction in cell viability incubated for 48 hrs by MTT assay; type: functional, cell-based; settings: MCF7, 48 h
MCF7 [2] = assay: Induction of apoptotic nuclear morphological changes in human MCF7 cells incubated for 48 hrs by DAPI nuclear staining based fluorescence microscopy; type: functional, cell-based
MCF7 [3] = assay: Induction of apoptotic morphological changes in human MCF7 cells assessed as induction of DNA fragmentation at 8 uM incubated for 48 hrs by AO/EB staining staining based fluorescence microscopy; type: functional, cell-based
MCF7 [4] = assay: Induction of apoptosis in human MCF7 cells assessed as early apoptosis cells level at 12 uM incubated for 48 hrs by Annexin V and propidium iodide staining based flow cytometry (reference value: 11.54%); type: functional
MCF7 [5] = assay: Induction of cell cycle arrest in human MCF7 cells assessed as accumulation at S phase at 8 uM incubated for 48 hrs by propidium iodide staining based flow cytometry (reference value: 12.28%); type: functional
MCF7 [6] = assay: Induction of apoptosis in human MCF7 cells incubated for 48 hrs by Annexin V and propidium iodide staining based flow cytometry (reference value: 7.4%); type: functional, cell-based
MCF7 [7] = assay: Induction of apoptosis in human MCF7 cells assessed as necrotic cells level at 8 uM incubated for 48 hrs by Annexin V and propidium iodide staining based flow cytometry (reference value: 0.46%); type: functional
MCF7 [8] = assay: Induction of apoptotic nuclear morphological changes in human MCF7 cells assessed as induction of DNA fragmentation at 12 uM incubated for 48 hrs by DAPI nuclear staining based fluorescence microscopy; type: functional, cell-based
MCF7 [9] = assay: Induction of apoptotic morphological changes in human MCF7 cells assessed as induction of membrane blebbing at 4 uM incubated for 48 hrs by AO/EB staining staining based fluorescence microscopy; type: functional, cell-based
MCF7 [10] = assay: Induction of apoptosis in human MCF7 cells assessed as necrotic cells level at 12 uM incubated for 48 hrs by Annexin V and propidium iodide staining based flow cytometry (reference value: 0.46%); type: functional
MCF7 [11] = assay: Induction of apoptosis in human MCF7 cells assessed as necrotic cells level at 4 uM incubated for 48 hrs by Annexin V and propidium iodide staining based flow cytometry (reference value: 0.46%); type: functional
MCF7 [12] = assay: Induction of cell cycle arrest in human MCF7 cells assessed as accumulation at G2/M phase at 4 uM incubated for 48 hrs by propidium iodide staining based flow cytometry (reference value: 32.51%); type: functional
MCF7 [13] = assay: Induction of cell cycle arrest in human MCF7 cells assessed as accumulation at subG1 phase at 4 uM incubated for 48 hrs by propidium iodide staining based flow cytometry (reference value: 0.88%); type: functional
MCF7 [14] = assay: Induction of cell cycle arrest in human MCF7 cells assessed as accumulation at subG1 phase at 8 uM incubated for 48 hrs by propidium iodide staining based flow cytometry (reference value: 0.88%); type: functional
MCF7 [15] = assay: Induction of cell cycle arrest in human MCF7 cells assessed as accumulation at G0/G1 phase at 8 uM incubated for 48 hrs by propidium iodide staining based flow cytometry (reference value: 53.01%); type: functional
MCF7 [16] = assay: Induction of apoptotic nuclear morphological changes in human MCF7 cells assessed as induction of cell shrinkage and round shape cells at 4 to 8 uM incubated for 48 hrs by DAPI nuclear staining based fluorescence microscopy; type: functional
MCF7 [17] = assay: Induction of apoptosis in human MCF7 cells assessed as late apoptosis cells level at 12 uM incubated for 48 hrs by Annexin V and propidium iodide staining based flow cytometry (reference value: 7.4%); type: functional
MCF7 [18] = assay: Induction of apoptotic nuclear morphological changes in human MCF7 cells assessed as induction of horse shoe shaped nucleus at 12 uM incubated for 48 hrs by DAPI nuclear staining based fluorescence microscopy; type: functional, cell-based
MCF7 [19] = assay: Induction of apoptosis in human MCF7 cells assessed as late apoptosis cells level at 8 uM incubated for 48 hrs by Annexin V and propidium iodide staining based flow cytometry (reference value: 7.4%); type: functional
MCF7 [20] = assay: Induction of cell cycle arrest in human MCF7 cells assessed as accumulation at G0/G1 phase at 4 uM incubated for 48 hrs by propidium iodide staining based flow cytometry (reference value: 53.01%); type: functional
MCF7 [21] = assay: Induction of apoptosis in human MCF7 cells assessed as late apoptosis cells level at 4 uM incubated for 48 hrs by Annexin V and propidium iodide staining based flow cytometry (reference value: 7.4%); type: functional
MCF7 [22] = assay: Induction of apoptosis in human MCF7 cells assessed as viable cells level at 4 uM incubated for 48 hrs by Annexin V and propidium iodide staining based flow cytometry (reference value: 80.6%); type: functional
MCF7 [23] = assay: Induction of apoptosis in human MCF7 cells assessed as viable cells level at 8 uM incubated for 48 hrs by Annexin V and propidium iodide staining based flow cytometry (reference value: 80.6%); type: functional
MCF7 [24] = assay: Induction of apoptotic morphological changes in human MCF7 cells assessed as induction of chromatin condensation at 8 uM incubated for 48 hrs by AO/EB staining staining based fluorescence microscopy; type: functional, cell-based
MCF7 [25] = assay: Induction of cell cycle arrest in human MCF7 cells assessed as accumulation at G2/M phase at 8 uM incubated for 48 hrs by propidium iodide staining based flow cytometry (reference value: 32.51%); type: functional
MCF7 [26] = assay: Induction of apoptosis in human MCF7 cells assessed as viable cells level at 12 uM incubated for 48 hrs by Annexin V and propidium iodide staining based flow cytometry (reference value: 80.6%); type: functional
MCF7 [27] = assay: Inhibition of colony formation in human MCF7 cells assessed as reduction in colony count incubated for 24 hrs by crystal violet staining based clonogenic cell reproduction assay; type: functional
MCF7 [28] = assay: Induction of apoptosis in human MCF7 cells assessed as early apoptosis cells level at 8 uM incubated for 48 hrs by Annexin V and propidium iodide staining based flow cytometry (reference value: 11.54%); type: functional
MCF7 [29] = assay: Induction of late apoptosis in human MCF7 cells at 12 uM incubated for 48 hrs by AO/EB staining staining based fluorescence microscopy; type: functional, cell-based
MCF7 [30] = assay: Induction of apoptotic morphological changes in human MCF7 cells assessed as induction of membrane blebbing at 8 uM incubated for 48 hrs by AO/EB staining staining based fluorescence microscopy; type: functional, cell-based
[31] = Selectivity index, ratio of IC50 for cytotoxicity in human L-132 cells to IC50 for cytotoxicity in human MCF7 cells; type: toxicity, cell-based; settings: L-132 cells and MCF7 cells, read-out: Ratio IC50
MCF7 [32] = assay: Induction of cell cycle arrest in human MCF7 cells assessed as accumulation at S phase at 4 uM incubated for 48 hrs by propidium iodide staining based flow cytometry (reference value: 12.28%); type: functional
L132 = assay: Cytotoxicity in human L-132 cells assessed as reduction in cell viability incubated for 48 hrs by MTT assay; type: cell-based; settings: L132, 48 h
MCF7 [33] = assay: Induction of apoptosis in human MCF7 cells assessed as early apoptosis cells level at 4 uM incubated for 48 hrs by Annexin V and propidium iodide staining based flow cytometry (reference value: 11.54%); type: functional

## COc1ccc(CN(C(=S)Nc2ccc(C)cc2)n2cnnc2)cc1OC
DU-145
  IC50: 26.3 µM
MDA-MB-231
  IC50: > 50 µM
A549
  IC50: 22.2 µM
B16-F10
  IC50: 29.9 µM
MCF7 [1]
  IC50: > 50 µM

## COc1cc(CN(C(=S)Nc2cc(C(F)(F)F)cc(C(F)(F)F)c2)n2cnnc2)cc(OC)c1OC
DU-145
  IC50: 23.1 µM
MDA-MB-231
  IC50: 24.9 µM
A549
  IC50: 21 µM
B16-F10
  IC50: 5.62 µM
MCF7 [1]
  IC50: 23.8 µM

## COc1ccc(OC)c(CN(C(=S)NC2CCCCC2)n2cnnc2)c1
DU-145
  IC50: 29.8 µM
MDA-MB-231
  IC50: > 50 µM
A549
  IC50: 21.5 µM
B16-F10
  IC50: 39.5 µM
MCF7 [1]
  IC50: > 50 µM

## CCCCCCCCCNC(=S)N(Cc1cc(OC)ccc1OC)n1cnnc1
DU-145
  IC50: > 50 µM
MDA-MB-231
  IC50: > 50 µM
A549
  IC50: > 50 µM
B16-F10
  IC50: 29.4 µM
MCF7 [1]
  IC50: > 50 µM

## COc1ccc(CN(C(=O)Nc2ccc(Cl)c(C(F)(F)F)c2)n2cnnc2)cc1OC
DU-145
  IC50: > 50 µM
MDA-MB-231
  IC50: > 50 µM
A549
  IC50: 29.3 µM
B16-F10
  IC50: > 50 µM
MCF7 [1]
  IC50: > 50 µM

## COc1ccc(CN(C(=O)Nc2ccc(C#N)cc2)n2cnnc2)cc1OC
DU-145
  IC50: 24.1 µM
MDA-MB-231
  IC50: > 50 µM
A549
  IC50: > 50 µM
B16-F10
  IC50: > 50 µM
MCF7 [1]
  IC50: > 50 µM

## N#Cc1ccc(CN(C(=S)Nc2cc(C(F)(F)F)cc(C(F)(F)F)c2)n2cnnc2)cc1
MCF7 [2]
  Activity: Dose-dependent effect
MCF7 [3]
  Activity: Active
MCF7 [4]
  Activity: 7.53%
MCF7 [5]
  Activity: 10.13%
MCF7 [6]
  Activity: Dose-dependent effect
DU-145
  IC50: 11.8 µM
MCF7 [7]
  Activity: 2.78%
MCF7 [8]
  Activity: Active
MCF7 [9]
  Activity: Active
MDA-MB-231
  IC50: 9.28 µM
MCF7 [10]
  Activity: 9.26%
MCF7 [11]
  Activity: 2.78%
MCF7 [12]
  Activity: 25.01%
MCF7 [13]
  Activity: 1.18%
MCF7 [14]
  Activity: 3.57%
MCF7 [15]
  Activity: 69.97%
MCF7 [16]
  Activity: Active
MCF7 [17]
  Activity: 38.35%
A549
  IC50: 9.39 µM
MCF7 [18]
  Activity: Active
MCF7 [19]
  Activity: 24.61%
MCF7 [20]
  Activity: 61.18%
MCF7 [21]
  Activity: 24.61%
MCF7 [22]
  Activity: 62.98%
MCF7 [23]
  Activity: 62.98%
MCF7 [24]
  Activity: Active
MCF7 [25]
  Activity: 14.34%
MCF7 [26]
  Activity: 44.86%
MCF7 [27]
  inhibition: Dose-dependent effect
B16-F10
  IC50: 4.51 µM
MCF7 [28]
  Activity: 9.63%
MCF7 [29]
  Activity: Active
MCF7 [30]
  Activity: Active
[31]
  selectivity ratio: 2
MCF7 [32]
  Activity: 11.33%
MCF7 [1]
  IC50: 7.22 µM
L132
  IC50: 15.2 µM
MCF7 [33]
  Activity: 9.63%

## O=C(NC1CCCCC1)N(Cc1ccccn1)n1cnnc1
DU-145
  IC50: > 50 µM
MDA-MB-231
  IC50: 44.1 µM
A549
  IC50: > 50 µM
B16-F10
  IC50: 35.8 µM
MCF7 [1]
  IC50: 46.9 µM

## CC1CCC(NC(=O)N(Cc2ccccn2)n2cnnc2)CC1 (stereo not given)
DU-145
  IC50: 20.1 µM
MDA-MB-231
  IC50: 33.2 µM
A549
  IC50: 43.7 µM
B16-F10
  IC50: 39.7 µM
MCF7 [1]
  IC50: 34 µM

## COc1ccc(CN(C(=S)Nc2ccc(F)c(Cl)c2)n2cnnc2)cc1OC
DU-145
  IC50: 23.3 µM
MDA-MB-231
  IC50: 27.9 µM
A549
  IC50: 21 µM
B16-F10
  IC50: 20.7 µM
MCF7 [1]
  IC50: 30.1 µM

## CCc1ccc(NC(=S)N(Cc2cc(OC)c(OC)c(OC)c2)n2cnnc2)cc1
DU-145
  IC50: 21.4 µM
MDA-MB-231
  IC50: 24.8 µM
A549
  IC50: 17.2 µM
B16-F10
  IC50: 24.7 µM
MCF7 [1]
  IC50: 24.8 µM

## COc1ccc(CN(C(=O)Nc2ccc(Cl)cc2)n2cnnc2)cc1OC
DU-145
  IC50: 20.4 µM
MDA-MB-231
  IC50: > 50 µM
A549
  IC50: 44.2 µM
B16-F10
  IC50: 42.2 µM
MCF7 [1]
  IC50: > 50 µM

## O=c1[nH]cc(F)c(=O)[nH]1 [FLUOROURACIL]
DU-145
  IC50: 39.2 µM
MCF7 [1]
  IC50: 16.7 µM
